Source: patent publication US20150044316A1, “METHOD FOR PREPARING A PURIFIED EXTRACT OF LONICERA JAPONICA THUNBERG AND THE COMPOSITION COMPRISING THE SAME FOR PREVENTING AND TREATING SEPSIS AND SEPTIC SHOCK” (Huons Co., Ltd., priority 2012, published 2015)

System: severe sepsis CLP model
Conditions: severe sepsis CLP mice
Experimental: To assess the treating activity of the combination of the purified extract prepared in the Examples with antibiotics on severe sepsis, following experiment was performed by using severe sepsis CLP model according to the modified procedure disclosed in the procedure (Daniel Rittirsch, et al. Immuodesign of Experimental sepsis by cecal ligation and puncture. Nature Protocols, Vol. 4(1), pp 31-36, 2009).
Anesthetic(ketamine hydrochloride, 100 mg/kg, Yuhan Pharm. Co.) was intraperitoneally injected to the mice (ICR female, 23-25 g, 8 weeks-old, www.dhbiolink.com) and sepsis was induced to the mice using by CLP (Cecal ligation and puncture). Cavus abdominis medians was dissected and cecum was exposed to ligate the distal ileocecal valve by silk suture (medical suture thread No. 1 & No. 2, www. lead-care.com), Two-holes were made at the cecum by a thread so as to exude the certain amount of fecal material. The cecum was put into the abdominal cavity together with fecal material and physiological saline solution was subcutaneously injected thereto to induce sepsis.
In particular, the suturing position of the distal ileocecal valve was changed and the number of puncture was more than 2 to increase the amount of fecal material in this experiment in order to inducing severe sepsis CLP model.

[1] = imipenem 25 mg/kg, HS-23 40 mg/kg

Structure (SMILES): C[C@@H](O)[C@H]1C(=O)N2C(C(=O)O)=C(SCCN=CN)C[C@H]12 [Imipenem, imipenem]
- survival rate at 1st day after the CLP (imipenem 25 mg/kg every 12 hours for 4 days, HS-23 40 mg/kg i.v.): 83%
- final survival rate at 10th days [1]: 33%
- survival rate at 2nd day after the CLP [1]: 58%
- survival rate at 3rd day after the CLP [1]: 50%
- survival rate at 4th day to 10th day after the CLP [1]: 42%
